The text below walks through data of EP0711558A1, “Compositions for topical application to skin, hair and nails” (UNILEVER PLC, priority 1994, dated 1996).

Data set [1] relates to Normal human keratinocytes. The data set can be described thus: Rate of DNA synthesis in keratinocytes (3H-thymidine incorporation; a decrease indicates growth inhibition / differentiation). Type of data set: cell-based. The following applies: for cell growth inhibition: Table 1 (image); for activity at 3 µM: 3 μM lipid alone, read-out: DNA synthesis, 0 nM 25-OH-D3. The protocol: Methodology Used for Determining the Rate of DNA Synthesis in Keratinocytes After Treatment With Various Actives
• 1. Normal human keratinocytes isolated from neonatal foreskins by trypsin treatment were grown in DME medium/10% fetal calf serum in the presence of irradiated 3T3 mouse fibroblasts for establishing dividing keratinocyte colonies. Keratinocytes were grown under the above condition until their third passage. • 2. For the experiments, third passage keratinocytes were plated into a serum-free keratinocyte growth medium (KGM; obtained from Clonetics Corporation, San Diego, CA) containing 0.15 mM calcium. 20,000 to 30,000 cells were plated into each well of 24 well cell culture plates and grown for 5 days, until the cells reach about 80% confluence. • 3. Medium was changed to fresh medium and the various test materials were added to the medium from an ethanolic stock solution (10 AM). The final ethanol concentration in the cultures was kept below 0.2%. Control cultures received no tested material but were dosed with 0.2% ethanol. Each compound or combination was tested in three separate wells. By 4PM, 1 uCi of ³H-thymidine (Amersham Corp., Sp activity 40 Ci/mmol) was added to the 1 ml medium in each well. The cells were incubated overnight and 24 hours later (10 AM next day) the amount of ³H-thymidine associated with the cellular DNA of keratinocytes was assessed as described below. • 4. The medium was aspirated, and the wells washed with 1 ml phosphate-buffered saline. The DNA and proteins of the cells in the plate were then precipitated by adding 1 ml of ice-cold 10% trichloroacetic acid (TCA). The plates were left on ice for 30 minutes to complete the precipitation process. TCA was then aspirated and each well was then washed four times with 5% TCA. The plates were then dried on a filter pad and the cells in the wells were dissolved in 0.5 ml of 0.1 N sodium hydroxide. The sodium hydroxide was then neutralized using 0.1 N hydrochloric acid and the solution (1 ml total volume) was then transferred to a scintillation vial. 100 ul samples from each vial were used for protein assay using BCA protein assay reagent obtained from Pierce Chemical Company. 8 ml of a scintillation fluid (Ecolume) was added to the rest of the solution in the vial, and the vials were counted in a scintillation counter to determine the amount of radioactivity in each vial. The DNA synthesis rate was then calculated as cpm ³H thymidine incorporated into total cellular DNA/microgram of cell protein for each individual well. Mean and standard deviation for each group was also calculated. […] All lipids listed in Tables 1-5 below were synthesized in-house. 25-OH-D₃ and 1,25-(OH)₂D₃ were obtained from Hoffman La Roche. Vitamin D ₃ was obtained from Sigma. • 6.
(In general: Dividing cells build labelled thymidine or BrdU into new DNA.)

In data set [2] the test system is keratinocytes. Conditions: as shown by Bikle et al.; cited from earlier work.
The test system of data set [3] is Normal human keratinocytes. The data set can be described thus: Vitamin D3 metabolites' uptake by keratinocytes (cell associated radioactivity). Type of data set: in vitro ADME. The following applies: for cell associated radioactivity: 60 picomolar; for rate of uptake by keratinocytes: Table 6, in words. The protocol: Vitamin D₃ Metabolites' Uptake:
Normal human keratinocytes were grown to confluence in Keratinocyte growth medium (KGM) containing 0.15 mM calcium. Medium was changed to fresh medium. The cells were then incubated in duplicate with 10,000 cpm (60 picomolar, or 25 picogram/ml medium) of 25-OH-D₃ or 1,25-(OH) ₂D₃ for various times (0 to 240 minutes). At different time intervals indicated in the Table below, the medium of appropriate wells were aspirated, and the wells were washed three times with a 0.2% bovine serum albumin solution in 50 mM Tris/0.15 M sodium chloride buffer pH 7.4. After the wash the cells in the wells were dissolved in 0.1 N sodium hydroxide, neutralized with 0. 1 N hydrochloric acid, mixed with 5 ml of scintillation fluid (Ecolume) and counted in a beta counter. The amount of cpm associated with the cells was calculated as the percent of total cpm added for each time point studied. Data in the table is expressed as cell associated radioactivity as % of total added. Each reported result is a mean of duplicate determinations.

The mark [4] stands for this setting: 100 nM, alone, 25-OH-D3 in two experiments, 1,25-(OH)2D3 in one experiment.
[5] abbreviates: 1000 nM, compound alone, consistently observed only at this concentration.
Setting [6] is: 0 minutes, mean of duplicate determinations.
Where [7] appears, read: Homo sapiens, Keratinocyte, 24 h, Table 5.

Each structure is given as a SMILES string. Like-named read-outs stand apart in the source and are kept apart here.

As to `C=C1/C(=C\C=C2/CCC[C@]3(C)[C@@H]([C@H](C)CCCC(C)(C)O)CC[C@@H]23)C[C@@H](O)C[C@@H]1O` [1,25-(OH)2D3, 1,25-dihydroxycholecalciferol], the cell growth inhibition result is “cell growth inhibition was also observed” in data set [1] (setting [4]) and “statistically significant cell growth inhibition” in data set [1] (setting [5]). Besides, in data set [2], the catabolism by keratinocytes entry was “catabolized to inactive metabolites rapidly”. Besides, the cell associated radioactivity is 0.8 % of total added in data set [3] (setting [6]); 2.7 % of total added in data set [3] (2 minutes); 4.2 % of total added in data set [3] (5 minutes); 13.0 % of total added in data set [3] (10 minutes); 10.0 % of total added in data set [3] (15 minutes); 20.0 % of total added in data set [3] (30 minutes). Further, the cell associated radioactivity in data set [3] (60 minutes) is reported as 15.6 % of total added; in data set [3] (120 minutes) it was 26.2 % of total added; in data set [3] (240 minutes), 30.8 % of total added. In addition, the “rate of uptake by keratinocytes” value in data set [3] is given as “rapidly taken up”.
Turning to `C=C1CC[C@H](O)C/C1=C/C=C1\CCC[C@]2(C)[C@@H]([C@H](C)CCCC(C)(C)O)CC[C@@H]12` [Formula 25-OH-D3, 25-hydroxycholecalciferol], in data set [1] (Homo sapiens, Keratinocyte, 24 h, 1 nM 25-OH-D3, no ceramide, read-out: DNA synthesis, 25-OH-D3 alone), the activity at 0.001 µM came to 99.3 ± 1.91%. In addition, the activity at 0.01 µM stood at 97.2 ± 5.92% in data set [1] (Homo sapiens, Keratinocyte, 24 h, 10 nM 25-OH-D3, no ceramide, read-out: DNA synthesis, 25-OH-D3 alone); 95.3 ± 6.9% in data set [1] (Homo sapiens, Keratinocyte, 24 h, Table 4, 10 nM vitamin D3 or its metabolite, no ceramide, read-out: DNA synthesis, No ceramide); 95.3 ± 6.9% in data set [1] (Homo sapiens, Keratinocyte, 24 h, Table 5, 10 nM 25-OH-D3, No ceramide, read-out: DNA synthesis, 10 nM 25-OH-D3). Moreover, the activity at 0.1 µM in data set [1] (Homo sapiens, Keratinocyte, 24 h, 100 nM 25-OH-D3, no ceramide, read-out: DNA synthesis, 25-OH-D3 alone) came to 86.5 ± 5.47%; in data set [1] (Homo sapiens, Keratinocyte, 24 h, Table 4, 100 nM vitamin D3 or its metabolite, no ceramide, read-out: DNA synthesis, No ceramide), 88.5 ± 7.2%; in data set [1] (Homo sapiens, Keratinocyte, 24 h, Table 5, 100 nM 25-OH-D3, No ceramide, read-out: DNA synthesis, 100 nM 25-OH-D3), 88.5 ± 7.2%. Also, the activity at 1 µM in data set [1] (Homo sapiens, Keratinocyte, 24 h, 1000 nM 25-OH-D3, no ceramide, read-out: DNA synthesis, 25-OH-D3 alone) is 67.8 ± 5.92%. Also, in data set [1] (Homo sapiens, Keratinocyte, 24 h, 25-OH-D3 employed alone, read-out: concentration of 25-OH-D3 at which inhibition of keratinocyte growth was observed), the minimal effective concentration was in the range of 0.1 to 1 µM. In addition, the cell growth inhibition result in data set [1] (setting [4]) is “cell growth inhibition was also observed”; in data set [1] (setting [5]), “statistically significant cell growth inhibition”. The cell associated radioactivity was 2.5 % of total added in data set [3] (setting [6]); 3.2 % of total added in data set [3] (2 minutes); 0.3 % of total added in data set [3] (5 minutes); 3.4 % of total added in data set [3] (10 minutes); 8.3 % of total added in data set [3] (15 minutes); 8.1 % of total added in data set [3] (30 minutes). The cell associated radioactivity is listed as 6.2 % of total added in data set [3] (60 minutes), 6.8 % of total added in data set [3] (120 minutes) and 9.8 % of total added in data set [3] (240 minutes). The “rate of uptake by keratinocytes” value in data set [3] is reported as “substantially slower rate”.
Consider `CCCCCCCCCCCCCCCCN(CC(O)CO)C(C)=O` (stereo not drawn) [neoceramide (Formula F), N-(2,3-dihydroxypropyl)-N-(hexadecyl)ethanamide], for which the activity at 3 µM in data set [1] (setting [7]) was 81.1 ± 4.9%.
Same read-out and setting: with `CCCCCCCCCCCCCCCCN(CC(O)CO)C(=O)CCCCC` (stereo not drawn) [neoceramide (Formula G), N-(2,3-dihydroxypropyl)-N-(hexadecyl)hexanamide] the figure was 103 ± 12.3%; with `CCCCCCCCCCCCCCCCN(CC(O)CO)C(=O)C(O)CCCCCC` (stereo not drawn) [neoceramide (Formula H), N-(2,3-dihydroxypropyl)-N-(hexadecyl)-2-hydroxyoctanamide], 85.7 ± 0.9%; with `CCCCCCCCCCCCN(CC(O)CO)C(=O)C(O)CCCCCC` (stereo not drawn) [neoceramide (Formula M), N-(2,3-dihydroxypropyl)-N-(dodecyl)-2-hydroxyoctnamide], 81.5 ± 6.4%.
Still for that read-out and setting: with `CCCCCCCCCCCCCCC(O)CN(CCO)C(=O)CCCCC` (stereo not drawn) [pseudoceramide (Formula D)] the figure was 62 ± 12.8%.
Still for that read-out and setting: the same measure for `CCCCCCCCCCCCCCCCOCC(O)CN(CCO)C(C)=O` (stereo not drawn) [pseudoceramide (Formula E)]: 95.9 ± 22%.
For `C=C1CC[C@H](O)C/C1=C/C=C1\CCC[C@]2(C)[C@@H]([C@H](C)CCCC(C)C)CC[C@@H]12` [vitamin D3, Vitamin D₃], in data set [1] (vitamin D3 employed alone (Table 4)), the growth inhibition entry is reported as “does not show statistically significant growth inhibition”. Moreover, the “synergy with the ceramide in inhibiting keratinocyte growth” value in data set [1] (with ceramide of Formula A, even at 100 nM vitamin D3) was “did not show any synergy”.
